Test system: 883617-216-R-J1-PDC complex spheroid viability
Test: Anticancer human tumor 883617-216-R-J1-PDC patient-derived bladder carcinoma cell line growth inhibition
Conditions: for IC50: curve of first compound; for viability, T/C: stronger effect = lower value
Outline: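 Drug combinations with the LSD1 inhibitor iadademstat tested on tumor cells co-cultured as spheroids with endothelial cells and mesenchymal stem cells. Concentrations descended in half-log increments from clinical Cmax or 10 microM.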

[1] = second compound 0.1 µM, first compound 0.0316 µM
[2] = second compound 0.1 µM, first compound 0.1 µM
[3] = second compound 0.1 µM, first compound 0.316 µM
[4] = second compound 0.1 µM, first compound 1 µM
[5] = second compound 0.316 µM, first compound 0.0316 µM
[6] = second compound 0.316 µM, first compound 0.1 µM
[7] = second compound 0.316 µM, first compound 0.316 µM
[8] = second compound 0.316 µM, first compound 1 µM
[9] = second compound 1 µM, first compound 0.0316 µM
[10] = second compound 1 µM, first compound 0.1 µM
[11] = second compound 1 µM, first compound 0.316 µM
[12] = second compound 1 µM, first compound 1 µM
[13] = second compound 3.16 µM, first compound 0.0316 µM
[14] = second compound 3.16 µM, first compound 0.1 µM
[15] = second compound 3.16 µM, first compound 0.316 µM
[16] = second compound 3.16 µM, first compound 1 µM
[17] = second compound 10 µM, first compound 0.0316 µM
[18] = second compound 10 µM, first compound 0.1 µM
[19] = second compound 10 µM, first compound 0.316 µM
[20] = second compound 10 µM, first compound 1 µM
[21] = second compound 0.1 µM, first compound 0.00949 µM
[22] = second compound 0.1 µM, first compound 0.03 µM
[23] = second compound 0.1 µM, first compound 0.0949 µM
[24] = second compound 0.1 µM, first compound 0.3 µM
[25] = second compound 0.1 µM, first compound 0.949 µM
[26] = second compound 0.1 µM, first compound 3 µM
[27] = second compound 0.316 µM, first compound 0.00949 µM
[28] = second compound 0.316 µM, first compound 0.03 µM
[29] = second compound 0.316 µM, first compound 0.0949 µM
[30] = second compound 0.316 µM, first compound 0.3 µM
[31] = second compound 0.316 µM, first compound 0.949 µM
[32] = second compound 0.316 µM, first compound 3 µM
[33] = second compound 1 µM, first compound 0.00949 µM
[34] = second compound 1 µM, first compound 0.03 µM
[35] = second compound 1 µM, first compound 0.0949 µM
[36] = second compound 1 µM, first compound 0.3 µM
[37] = second compound 1 µM, first compound 0.949 µM
[38] = second compound 1 µM, first compound 3 µM
[39] = second compound 3.16 µM, first compound 0.00949 µM
[40] = second compound 3.16 µM, first compound 0.03 µM
[41] = second compound 3.16 µM, first compound 0.0949 µM
[42] = second compound 3.16 µM, first compound 0.3 µM
[43] = second compound 3.16 µM, first compound 0.949 µM
[44] = second compound 3.16 µM, first compound 3 µM
[45] = second compound 10 µM, first compound 0.00949 µM
[46] = second compound 10 µM, first compound 0.03 µM
[47] = second compound 10 µM, first compound 0.0949 µM
[48] = second compound 10 µM, first compound 0.3 µM
[49] = second compound 10 µM, first compound 0.949 µM
[50] = second compound 10 µM, first compound 3 µM
[51] = second compound 0.1 µM, first compound 0.00316 µM
[52] = second compound 0.1 µM, first compound 0.01 µM
[53] = second compound 0.316 µM, first compound 0.00316 µM
[54] = second compound 0.316 µM, first compound 0.01 µM
[55] = second compound 1 µM, first compound 0.00316 µM
[56] = second compound 1 µM, first compound 0.01 µM
[57] = second compound 3.16 µM, first compound 0.00316 µM
[58] = second compound 3.16 µM, first compound 0.01 µM
[59] = second compound 10 µM, first compound 0.00316 µM
[60] = second compound 10 µM, first compound 0.01 µM
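Also: exposure lasted seven days after three days of spheroid growth.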
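For viability, T/C in this document: 100% = DMSO vehicle control luminescence.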

SMILES: CC1(C)CCC(CN2CCN(c3ccc(C(=O)NS(=O)(=O)c4ccc(NCC5CCOCC5)c([N+](=O)[O-])c4)c(Oc4cnc5[nH]ccc5c4)c3)CC2)=C(c2ccc(Cl)cc2)C1 + NC1CCC(NC2CC2c2ccccc2)CC1
- IC50 (second compound 0.1 µM): 7.33 µM
- IC50 (second compound 0.316 µM): 7.54 µM
- IC50 (second compound 1 µM): 7.34 µM
- IC50 (second compound 3.16 µM): 7.34 µM
- IC50 (second compound 10 µM): 7.1 µM
- viability, T/C [1]: 108%
- viability, T/C [2]: 114%
- viability, T/C [3]: 109%
- viability, T/C [4]: 104%
- viability, T/C (second compound 0.1 µM, first compound 3.16 µM): 109%
- viability, T/C (second compound 0.1 µM, first compound 10 µM): 28.3%
- viability, T/C [5]: 111%
- viability, T/C [6]: 106%
- viability, T/C [7]: 122%
- viability, T/C [8]: 109%
- viability, T/C (second compound 0.316 µM, first compound 3.16 µM): 125%
- viability, T/C (second compound 0.316 µM, first compound 10 µM): 28.9%
- viability, T/C [9]: 105%
- viability, T/C [10]: 110%
- viability, T/C [11]: 118%
- viability, T/C [12]: 110%
- viability, T/C (second compound 1 µM, first compound 3.16 µM): 113%
- viability, T/C (second compound 1 µM, first compound 10 µM): 27.4%
- viability, T/C [13]: 104%
- viability, T/C [14]: 114%
- viability, T/C [15]: 110%
- viability, T/C [16]: 114%
- viability, T/C (second compound 3.16 µM, first compound 3.16 µM): 120%
- viability, T/C (second compound 3.16 µM, first compound 10 µM): 27%
- viability, T/C [17]: 107%
- viability, T/C [18]: 102%
- viability, T/C [19]: 108%
- viability, T/C [20]: 110%
- viability, T/C (second compound 10 µM, first compound 3.16 µM): 118%
- viability, T/C (second compound 10 µM, first compound 10 µM): 24.8%

SMILES: CCN(c1cc(-c2ccc(CN3CCOCC3)cc2)cc(C(=O)NCc2c(C)cc(C)[nH]c2=O)c1C)C1CCOCC1 + NC1CCC(NC2CC2c2ccccc2)CC1
- IC50 (second compound 0.1 µM): > 3 µM
- IC50 (second compound 0.316 µM): > 3 µM
- IC50 (second compound 1 µM): > 3 µM
- IC50 (second compound 3.16 µM): > 3 µM
- IC50 (second compound 10 µM): > 3 µM
- viability, T/C [21]: 96.4%
- viability, T/C [22]: 85%
- viability, T/C [23]: 86.9%
- viability, T/C [24]: 84.7%
- viability, T/C [25]: 90.7%
- viability, T/C [26]: 80.8%
- viability, T/C [27]: 95.8%
- viability, T/C [28]: 98.8%
- viability, T/C [29]: 93.1%
- viability, T/C [30]: 87.6%
- viability, T/C [31]: 89.1%
- viability, T/C [32]: 86%
- viability, T/C [33]: 90.2%
- viability, T/C [34]: 89.5%
- viability, T/C [35]: 83.8%
- viability, T/C [36]: 88.4%
- viability, T/C [37]: 90%
- viability, T/C [38]: 86.3%
- viability, T/C [39]: 94.5%
- viability, T/C [40]: 87.7%
- viability, T/C [41]: 88.3%
- viability, T/C [42]: 89.9%
- viability, T/C [43]: 87.9%
- viability, T/C [44]: 93.9%
- viability, T/C [45]: 97.8%
- viability, T/C [46]: 91.7%
- viability, T/C [47]: 90.8%
- viability, T/C [48]: 96.2%
- viability, T/C [49]: 94.5%
- viability, T/C [50]: 92.8%

SMILES: COc1cc(Nc2ncc3c(n2)-c2ccc(Cl)cc2C(c2c(F)cccc2OC)=NC3)ccc1C(=O)O + NC1CCC(NC2CC2c2ccccc2)CC1
- IC50 (second compound 0.1 µM): > 1 µM
- IC50 (second compound 0.316 µM): 0.262 µM
- IC50 (second compound 1 µM): 0.322 µM
- IC50 (second compound 3.16 µM): > 1 µM
- IC50 (second compound 10 µM): > 1 µM
- viability, T/C [51]: 96.2%
- viability, T/C [52]: 77.3%
- viability, T/C [1]: 61.3%
- viability, T/C [2]: 53.3%
- viability, T/C [3]: 51.5%
- viability, T/C [4]: 50.7%
- viability, T/C [53]: 98.6%
- viability, T/C [54]: 81.1%
- viability, T/C [5]: 58.7%
- viability, T/C [6]: 53.3%
- viability, T/C [7]: 48.8%
- viability, T/C [8]: 49.1%
- viability, T/C [55]: 94.8%
- viability, T/C [56]: 75.7%
- viability, T/C [9]: 54.6%
- viability, T/C [10]: 49.4%
- viability, T/C [11]: 48.8%
- viability, T/C [12]: 53%
- viability, T/C [57]: 96.1%
- viability, T/C [58]: 83.7%
- viability, T/C [13]: 58.8%
- viability, T/C [14]: 50.8%
- viability, T/C [15]: 55.5%
- viability, T/C [16]: 56.2%
- viability, T/C [59]: 93.5%
- viability, T/C [60]: 75.5%
- viability, T/C [17]: 65.1%
- viability, T/C [18]: 58.1%
- viability, T/C [19]: 54.7%
- viability, T/C [20]: 51.1%

SMILES: Cn1ncnc1C1c2n[nH]c(=O)c3cc(F)cc(c23)NC1c1ccc(F)cc1 (stereo not given) + NC1CCC(NC2CC2c2ccccc2)CC1
- IC50 (second compound 0.1 µM): > 0.1 µM
- IC50 (second compound 0.316 µM): > 0.1 µM
- IC50 (second compound 1 µM): > 0.1 µM
- IC50 (second compound 3.16 µM): > 0.1 µM
- IC50 (second compound 10 µM): > 0.1 µM
- viability, T/C (second compound 0.1 µM, first compound 0.000316 µM): 110%
- viability, T/C (second compound 0.1 µM, first compound 0.001 µM): 110%
- viability, T/C [51]: 103%
- viability, T/C [52]: 91.6%
- viability, T/C [1]: 68.5%
- viability, T/C [2]: 66.6%
- viability, T/C (second compound 0.316 µM, first compound 0.000316 µM): 113%
- viability, T/C (second compound 0.316 µM, first compound 0.001 µM): 111%
- viability, T/C [53]: 97.6%
- viability, T/C [54]: 89.7%
- viability, T/C [5]: 72.7%
- viability, T/C [6]: 60%
- viability, T/C (second compound 1 µM, first compound 0.000316 µM): 112%
- viability, T/C (second compound 1 µM, first compound 0.001 µM): 113%
- viability, T/C [55]: 99.2%
- viability, T/C [56]: 93.9%
- viability, T/C [9]: 67.3%
- viability, T/C [10]: 57.7%
- viability, T/C (second compound 3.16 µM, first compound 0.000316 µM): 101%
- viability, T/C (second compound 3.16 µM, first compound 0.001 µM): 102%
- viability, T/C [57]: 99.2%
- viability, T/C [58]: 85.2%
- viability, T/C [13]: 69.2%
- viability, T/C [14]: 69.7%
- viability, T/C (second compound 10 µM, first compound 0.000316 µM): 107%
- viability, T/C (second compound 10 µM, first compound 0.001 µM): 106%
- viability, T/C [59]: 108%
- viability, T/C [60]: 90.6%
- viability, T/C [17]: 72.8%
- viability, T/C [18]: 66.2%

SMILES: NS(=O)(=O)OCC1CC(n2ccc3c(NC4CCc5ccccc54)ncnc32)CC1O (stereo not given) + NC1CCC(NC2CC2c2ccccc2)CC1
- IC50 (second compound 0.1 µM): 0.399 µM
- IC50 (second compound 0.316 µM): 0.497 µM
- IC50 (second compound 1 µM): 0.453 µM
- IC50 (second compound 3.16 µM): 0.5 µM
- IC50 (second compound 10 µM): 0.392 µM
- viability, T/C [21]: 111%
- viability, T/C [22]: 121%
- viability, T/C [23]: 106%
- viability, T/C [24]: 59.8%
- viability, T/C [25]: 20.7%
- viability, T/C [26]: 15.2%
- viability, T/C [27]: 118%
- viability, T/C [28]: 113%
- viability, T/C [29]: 113%
- viability, T/C [30]: 73.8%
- viability, T/C [31]: 19.4%
- viability, T/C [32]: 15.6%
- viability, T/C [33]: 102%
- viability, T/C [34]: 116%
- viability, T/C [35]: 105%
- viability, T/C [36]: 67%
- viability, T/C [37]: 19.5%
- viability, T/C [38]: 14%
- viability, T/C [39]: 101%
- viability, T/C [40]: 106%
- viability, T/C [41]: 99.5%
- viability, T/C [42]: 73.8%
- viability, T/C [43]: 20.2%
- viability, T/C [44]: 13.7%
- viability, T/C [45]: 113%
- viability, T/C [46]: 117%
- viability, T/C [47]: 107%
- viability, T/C [48]: 58.9%
- viability, T/C [49]: 20.8%
- viability, T/C [50]: 14.6%
